# Assay results published in patent publication US20040110138A1, “Method for the detection of multiple genetic targets” (University of Ottawa, priority 2002, published 2004).
# Tested on: coagulase-negative Staphylococci (CoNS)
# Experiment: Oxacillin MIC by agar dilution (NCCLS M100-S10, M7), isolate retest
# Type: cell-based
# Method: Blood culture bottles that were flagged as positive by the BacT/Alert system (Organon Teknika Corp., Durham N.C.) were processed by the Microbiology laboratory using standard microbiologic methods (Kloos & Bannerman, 1999). S. aureus was identified by a positive tube coagulase test. Oxacillin susceptibility for S. aureus was determined using the oxacillin salt agar screen method (NCCLS M100-S10, M7) and for coagulase-negative Staphylococci (CoNS) using disk diffusion testing (NCCLS M100-S10, M2).
# In cases where there were discrepancies between the mecA PCR result of the blood culture bottle contents and the initial susceptibility result for the isolate recovered from the bottle, the isolate was re-tested for the mecA gene, oxacillin MIC was determined by agar dilution (NCCLS M100-S10, M7) and disk diffusion testing for oxacillin was repeated (NCCLS M100-S10, M2).
smiles,measurement,setting,value
Cc1onc(-c2ccccc2)c1C(=O)N[C@@H]1C(=O)N2[C@@H]1SC(C)(C)[C@@H]2C(=O)O [Oxacillin],Oxacillin MIC,"isolate from bottle 8, initially reported as MS-CoNS",2.0
same,Oxacillin MIC,"isolate from bottle 10, initially reported as MR-CoNS",0.5
